# Reference: patent publication US20240409585A1, “MACROCYCLIC IMMUNOMODULATORS” (priority 2021, published 2024)
# Numbered stars: 1 amine (or outer) side, 2 acyl side, 3 side chain; on linkers, the order of the positions; unused ones are H or OH. Bridge positions count the residues as written; N and C are the ends. Square brackets hold non-standard residues; d marks the D form. Peptide text beside a SMILES is read from it. * marks the point of attachment. Bip(4'-COOH) = N[C@@H](Cc1ccc(-c2ccc(C(=O)O)cc2)cc1)C(=O)O; Bip(4'-NHAc) = CC(=O)Nc1ccc(-c2ccc(C[C@H](N)C(=O)O)cc2)cc1; X13 = O=C(CCc1ccccc1)NCc1cccc(C[C@H](N[*:1])C(=O)[*:2])c1; Phe(3-CF3) = N[C@@H](Cc1cccc(C(F)(F)F)c1)C(=O)O; Ala(morpholin-4-yl) = N[C@@H](CN1CCOCC1)C(=O)O; Phe(4-COOH) = N[C@@H](Cc1ccc(C(=O)O)cc1)C(=O)O; Bip = N[C@@H](Cc1ccc(-c2ccccc2)cc1)C(=O)O; Phe(3-OMe) = COc1cccc(C[C@H](N)C(=O)O)c1; Phe(3-F) = N[C@@H](Cc1cccc(F)c1)C(=O)O; Phe(3-Me) = Cc1cccc(C[C@H](N)C(=O)O)c1; Cha = N[C@@H](CC1CCCCC1)C(=O)O; Carboxymethyl = O=C(O)C*; NMeA = CN[C@@H](C)C(=O)O; Nle = CCCC[C@H](N)C(=O)O; Orn = NCCC[C@H](N)C(=O)O; Dab = NCC[C@H](N)C(=O)O
# Assays:
# [1] = biological target: T1, PE-labeled human PD-L1-Ig binding to Jurkat cell line over-expressing human PD-1 (Jurkat-PD-1) (Homo sapiens, UniProt Q15116); test: Jurkat-PD-1 Cell Binding High-Content Screening Assay (CBA): Method 1; settings: Jurkat-PD-1 cells, PE-labeled PD-L1-Ig; μM; read-out: CBA Method 1 μM
# T1 construct: expressed in transfected cells; host or cells: Jurkat
# [2] = biological target: T1, PE-labeled human PD-L1-Ig binding to Jurkat cell line over-expressing human PD-1 (Jurkat-PD-1); test: Jurkat-PD-1 Cell Binding High-Content Screening Assay (CBA): Method 2 (presence and absence of tween-20); settings: Jurkat-PD-1 cells, PE-labeled PD-L1-Ig 20 nM; presence or absence of tween-20 not given; head μM; read-out: CBA Method 2 μM
# In short: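 Compounds incubated with Jurkat cells overexpressing human PD-1 for 2 h at 37° C, tested with and without tween-20 to flag aggregation. PE-labeled human PD-L1-Ig (20 nM final) added in DMEM/10% FCS; binding read by high-content imaging.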
# T1 sequence (Q15116 25-288): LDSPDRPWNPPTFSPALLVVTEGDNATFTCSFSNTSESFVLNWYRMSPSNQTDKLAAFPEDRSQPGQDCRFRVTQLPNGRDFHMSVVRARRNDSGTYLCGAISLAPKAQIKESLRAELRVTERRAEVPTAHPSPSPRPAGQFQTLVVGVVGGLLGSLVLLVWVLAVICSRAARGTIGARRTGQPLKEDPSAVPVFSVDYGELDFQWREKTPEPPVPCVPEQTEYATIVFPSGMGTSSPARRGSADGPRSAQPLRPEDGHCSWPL
Compound,IC50 [1],IC50 [2]
CC(=O)Nc1ccc(-c2ccc(C[C@@H]3NC(=O)[C@H](Cc4cccc(C)c4)NC(=O)[C@H](CC(=O)O)NC(=O)[C@H](Cc4ccc(C(=O)O)cc4)NC(=O)[C@H](CN4CCOCC4)NC(=O)CSC[C@@H](C(=O)N[C@@H](CCN)C(N)=O)NC(=O)[C@H](CCCN)NC(=O)[C@H](C(C)C)NC(=O)[C@H](Cc4cccc(F)c4)NC(=O)[C@H](CCN)NC(=O)[C@@H](CC(C)C)NC(=O)[C@H](C)N(C)C(=O)[C@H](CCC(N)=O)NC(=O)[C@H](Cc4ccc(-c5ccccc5)cc4)NC3=O)cc2)cc1 [Example 5049] ({CH2CO}-[Ala(morpholin-4-yl)][Phe(4-COOH)]D[Phe(3-Me)][Bip(4'-NHAc)][Bip]Q[NMeA][dL][Dab][Phe(3-F)]V[Orn]C[Dab]-NH2; thioether N-14),0.0083 µM,0.007 µM
CC(C)C[C@H]1NC(=O)[C@H](C)N(C)C(=O)[C@H](CCCN)NC(=O)[C@H](Cc2ccc(-c3ccccc3)cc2)NC(=O)[C@H](Cc2ccc(-c3ccc(C(=O)O)cc3)cc2)NC(=O)[C@H](Cc2cccc(C(F)(F)F)c2)NC(=O)[C@H](CC(=O)O)NC(=O)[C@H](Cc2ccc(-c3ccc(C(=O)O)cc3)cc2)NC(=O)[C@H](Cc2ccc(OCC(=O)O)cc2)NC(=O)CSC[C@@H](C(=O)N[C@@H](CCN)C(N)=O)NC(=O)[C@H](CCCN)NC(=O)[C@H](C(C)C)NC(=O)[C@H](CC2CCCCC2)NC(=O)[C@H](CCN)NC1=O [Example 5087] ({CH2CO}-Y(Carboxymethyl)[Bip(4'-COOH)]D[Phe(3-CF3)][Bip(4'-COOH)][Bip][Orn][NMeA][dL][Dab][Cha]V[Orn]C[Dab]-NH2; thioether N-14),0.03 µM,0.11 µM
Cc1cccc(C[C@@H]2NC(=O)[C@H](CC(=O)O)NC(=O)[C@H](Cc3ccc(C(=O)O)cc3)NC(=O)[C@H](CN3CCOCC3)NC(=O)CSC[C@@H](C(=O)N[C@@H](CCN)C(N)=O)NC(=O)[C@H](CCCN)NC(=O)[C@H](C(C)C)NC(=O)[C@H](Cc3cccc(F)c3)NC(=O)[C@H](CCN)NC(=O)[C@@H](CC(C)C)NC(=O)[C@H](C)N(C)C(=O)[C@H](CCC(N)=O)NC(=O)[C@H](Cc3ccc(-c4ccccc4)cc3)NC(=O)[C@H](Cc3ccc(-c4ccc(C(=O)O)cc4)cc3)NC2=O)c1 [Example 5060] ({CH2CO}-[Ala(morpholin-4-yl)][Phe(4-COOH)]D[Phe(3-Me)][Bip(4'-COOH)][Bip]Q[NMeA][dL][Dab][Phe(3-F)]V[Orn]C[Dab]-NH2; thioether N-14),0.0068 µM,0.0093 µM
Cc1cccc(C[C@@H]2NC(=O)[C@H](CC(=O)O)NC(=O)[C@H](Cc3ccc(OCC(=O)O)cc3)NC(=O)[C@H](Cc3cccc(CNC(=O)CCc4ccccc4)c3)NC(=O)CSC[C@@H](C(=O)N[C@@H](CCN)C(N)=O)NC(=O)[C@H](CCCN)NC(=O)[C@H](C(C)C)NC(=O)[C@H](CC3CCCCC3)NC(=O)[C@H](CCN)NC(=O)[C@@H](CC(C)C)NC(=O)[C@H](C)N(C)C(=O)[C@H](CCC(N)=O)NC(=O)[C@H](Cc3ccc(-c4ccccc4)cc3)NC(=O)[C@H](Cc3ccc(C(=O)O)cc3)NC2=O)c1 [Example 5034] ({CH2CO}-[X13]Y(Carboxymethyl)D[Phe(3-Me)][Phe(4-COOH)][Bip]Q[NMeA][dL][Dab][Cha]V[Orn]C[Dab]-NH2; thioether N-14),0.0051 µM,0.0031 µM
CCCC[C@@H]1NC(=O)CSC[C@@H](C(=O)N[C@@H](CCN)C(N)=O)NC(=O)[C@H](CCCN)NC(=O)[C@H](C(C)C)NC(=O)[C@H](CC2CCCCC2)NC(=O)[C@H](CCN)NC(=O)[C@@H](CC(C)C)NC(=O)[C@H](C)N(C)C(=O)[C@H](CCCN)NC(=O)[C@H](Cc2ccc(-c3ccccc3)cc2)NC(=O)[C@H](Cc2ccc(-c3ccc(C(=O)O)cc3)cc2)NC(=O)[C@H](Cc2cccc(C(F)(F)F)c2)NC(=O)[C@H](CC(=O)O)NC(=O)[C@H](Cc2ccc(-c3ccc(C(=O)O)cc3)cc2)NC1=O [Example 5088] ({CH2CO}-[Nle][Bip(4'-COOH)]D[Phe(3-CF3)][Bip(4'-COOH)][Bip][Orn][NMeA][dL][Dab][Cha]V[Orn]C[Dab]-NH2; thioether N-14),0.09 µM,0.2 µM
COc1cccc(C[C@@H]2NC(=O)[C@H](CCN)NC(=O)[C@@H](CC(C)C)NC(=O)[C@H](C)N(C)C(=O)[C@H](CCC(N)=O)NC(=O)[C@H](Cc3ccc(-c4ccccc4)cc3)NC(=O)[C@H](Cc3ccc(C(=O)O)cc3)NC(=O)[C@H](Cc3cccc(C)c3)NC(=O)[C@H](CC(=O)O)NC(=O)[C@H](Cc3ccc(OCC(=O)O)cc3)NC(=O)[C@H](CN3CCOCC3)NC(=O)CSC[C@@H](C(=O)N[C@@H](CCN)C(N)=O)NC(=O)[C@H](CCCN)NC(=O)[C@H](C(C)C)NC2=O)c1 [Example 5043] ({CH2CO}-[Ala(morpholin-4-yl)]Y(Carboxymethyl)D[Phe(3-Me)][Phe(4-COOH)][Bip]Q[NMeA][dL][Dab][Phe(3-OMe)]V[Orn]C[Dab]-NH2; thioether N-14),0.0098 µM,0.0098 µM
